Source: US11197856B2, “Bicyclic compounds and methods for their use in treating autism” (priority 2013, dated 2021)

Assays:
fmr1-knockout animals = assay: Sociability: bouts of sniffing a novel mouse; type: in vivo, mice; details: p<0.001
Experimental: Social recognition and social memory in mice were evaluated by the amount of time spent sniffing a novel mouse upon repeated exposures, to induce familiarity, and reinstatement of high levels of sniffing when a novel stimulus animal is introduced. We measured the number of bouts of sniffing in each of the groups of animals.

AMPA receptors GluR1 = assay: AMPA glutamate receptor-1 immunohistochemical staining of hippocampus; type: in vivo, male Wistar rats
Experimental: Aged rats (male Wistar rats, 18-20 months old) were divided into four groups: two vehicle-treated (groups 1 and 3) and two G-2-AllylP treated (groups 2 and 4) (all groups n=6-8). Cyclic G-2-AllylP was synthesised by the Department of Medicinal Chemistry and dissolved in normal saline before the treatment. On day 1 a single dose of cyclic G-2-AllylP was given centrally (20 ng/animal, i.c.v.) to the animals in groups 2 and 4; saline was administered to groups 1 and 3. The memory tests using Novel Object Recognition Test started either on day 3 (groups 1 and 2) or 24 (groups 3 and 4) after the treatment. On the completion of the NORT, the rats were killed with an overdose of sodium pentobarbital and were perfused transcardially with normal saline followed by 10% formalin. Tissues collected at day 7 in groups 1 and 2, and at day 28 from groups 3 and 4. The brains were kept in the same fixative for a minimum of 2 days before being processed using a standard paraffin embedding procedure. Briefly, small blocks (10×10×3 mm) of tissue were fixed for up to 24 hrs. The blocks were then infiltrated and embedded with paraffin and cut in ribbons and mounted on slides. […]
The following antibodies were used: • i) primary rabbit antibody to NMDA NR1 subunit, at 1:200 concentration in buffer, incubated for 48 hrs (Chemicon—AB1516), followed by Sigma fluorescent secondary antibody (alexaFluor 394), at 1:200 dilution, incubated for 24 hours at 40C. • ii) primary antibody to AMPA GluR1 subunit, at 1:30 concentration in buffer, incubated for 48 hrs (Chemicon—AB1504) followed by 3,3′-diaminobenzidine (DAB) at 1:200 dilution, incubated for 24 hours at 40C. • iii) Primary antibody to mSynaptophysin (Sigma—S5768), at 1:200 concentration in buffer, followed by DAB at 1:200 dilution, incubated for 24 hours at 40C. • iv) Primary antibody to rKrox-24 (Santa Cruz—catalogue number SC-189) at 1:200 concentration in the buffer, followed by anti-rabbit secondary antibody at concentration of 1:200 dilution, incubated for 24 hours at 40C. • y) Antibodies were detected using light microscopy. […]

hippocampal CA1 neurons = assay: Dendritic arborization, dendritic and spine length after Golgi staining, mecp2 knockout mice; type: in vivo
Experimental: We assess the effects of cG-2-AllylP treatment on dendrites. Transgenic mecp2 knockout mice (n=15 to 20) are administered cG-2-AllylP intraperitoneally at a dose of 20 mg/kg once daily. Following sacrifice dendritic spine density, spine length and aborization are examined after Golgi staining after nine weeks, according to Table 5 below.
Dendritic length is assessed by distance from the soma of representative hippocampal CA1 neurons from 9 week old male mecp2 null mutant mice treated with either saline (3 neurons analysed from 3 separate mice, n=9) or cG-2-AllylP (20 mg/kg i.p. 1/day, from week 4; 3 neurons are analysed from 3 separate mice, n=9).

MeCP2-/y mice = assay: Heart rate measurements (tail clip sensor); type: in vivo; details: 8 weeks old
Experimental: Real time cardiac pulse rate is measured using a tail clip sensor (Mouse OX Oximeter-Oakmont, Pa.). Mice are not anesthetized but physically restrained in a fitted open plastic tube. Prior to the recording session the tube is placed overnight in the cages housing the experimental animals to allow habituation. Body temperature is maintained at ˜82-84° F. throughout the recording time. We record 3 trials of 15 minutes for each mouse, mice are 8 weeks old and treated with vehicle or cG-2-AllylP from PIS.
To examine heart rate abnormalities in MeCP2−/y mice and the effect of cG-2-AllylP treatment, we monitor real time cardiac pulse rate in non-anesthetized wild type and MeCP2−/y animals treated with vehicle or cG-2-AllylP.

p-Akt = assay: Phospho-flow cytometry of lymphocytes, p-Akt; type: in vivo; details: fmr1-knockout mice; 15, 30, 60 and 240 minutes after a single treatment
Excerpt: Lymphocytes are isolated from five fmr1-knockout and five wild-type titter mate control mice, per study time after injection with cG-2-AllylP. Lymphocytes are examined for activation of two signaling effectors, p-ERK1/2 and p-Akt using phosphorylation status as a measure of activation by flow cytometry (phospho-flow).
2. Flow cytometry total and phosphorylated AKT in lymphocytes

[1] = tested on: pre-synaptic vesicles in the hippocampus; assay: Pre-synaptic vesicle count by transmission electron microscopy, middle aged rats; type: in vivo, Wistar male rats; details: CA1 and C3 subregions; 3 mg/kg/day x 7 days, s.c.; 21 days
Experimental: Four middle aged Wistar male rats (12 months) were divided into two groups: one vehicle-treated (n=2) and one cG-2-AllylP-treated (n=2). The rats were treated subcutaneously with 3 mg/kg/day of either saline or cG-2-AllylP for 7 days. On day 21 of the experiment the animals were sacrificed and the hippocampal tissue was harvested. Semi-thin sections of the tissue were fixed with OsO4 and embedded in resin. CA1 stratum oriens and CA3 sections were then sliced into ultra-thin, 80 nm slices and stained with uranyl acetate and lead citrate. Approximately 30 synapses per animal were analysed, synapse type classified and vesicle density was measured using AnalySIS®.
Transmission electron microscopy was used to count the total number of vesicles on the slides. The average density was calculated by measuring the total area (using AxioVision software) and using the number of vesicles. We followed the protocol in Yoshida et al. 97, Journal of Neurochemistry to calculate the vesicle density in a 200 nm×200 nm square apposing the post-synaptic density (PSD).

SMILES: C=CC[C@]12CCCN1C(=O)CNC2=O [cG-2-AllylP, (8aS)-Allyl-hexahydropyrrolo[1,2-a]pyrazine-1,4-dione]
- bouts of sniffing (fmr1-knockout animals): about 21
- number of AMPA receptors GluR1 (AMPA receptors GluR1; CA1 granular cell layer, day 28): significant increase in the number of AMPA receptors
- number of AMPA receptors GluR1 (AMPA receptors GluR1; CA1 stratum oriens, day 28): significant increase in the number of AMPA receptors
- number of AMPA receptors GluR1 (AMPA receptors GluR1; CA3, day 7 or 28, 20 ng/animal i.c.v.): no change in the number of receptors
- dendritic length by distance from the soma (hippocampal CA1 neurons; hippocampal CA1 neurons, vs saline): produces longer dendrites over much of the range of distances from the somas
- dendritic arborization and dendritic spine length (hippocampal CA1 neurons; mecp2 knockout mice, 20 mg/kg i.p. once daily, nine weeks): improves dendritic arborization and increases dendritic spine length
- occurrence of irregular heart rate with a lower average rate (MeCP2-/y mice): significantly reduced
- mean fluorescent intensity (MFI) for p-AKT (p-Akt): decreases at all time points
- number of pre-synaptic vesicles [1]: increased
